Target: T1, human mGluR5d (Homo sapiens, UniProt P41594)
T1 construct: expressed in transfected cells; host or cells: GHEK (HEK cells expressing a glutamate transporter) for the IP3 assay
Assay: Functional assessment of mGluR5 antagonism in cell lines expressing mGluR5d (FLIPR calcium mobilization / IP3 turnover; assay behind the values not specified)
Assay type: cell-based
Settings: cells expressing human mGluR5d; FLIPR or IP3 assay not specified
Description: The pharmacological properties of the compounds of the invention can be analyzed using standard assays for functional activity. Examples of glutamate receptor assays are well known in the art as described in for example Aramori et al., Neuron 8:757 (1992), Tanabe et al., Neuron 8:169 (1992), Miller et al., J. Neuroscience 15: 6103 (1995), Balazs, et al., J. Neurochemistry 69:151 (1997). The methodology described in these publications is incorporated herein by reference. Conveniently, the compounds of the invention can be studied by means of an assay that measures the mobilization of intracellular calcium, [Ca^2+]i in cells expressing mGluR5.
Intracellular calcium mobilization was measured by detecting changes in fluorescence of cells loaded with the fluorescent indicator fluo-3. Fluorescent signals were measured using the FLIPR system (Molecular Devices). […]
FLIPR experiments were done using a laser setting of 0.800 W and a 0.4 second CCD camera shutter speed. […] After each addition of the compound, the fluorescence signal was sampled 50 times at 1 second intervals followed by 3 samples at 5 second intervals. Responses were measured as the peak height of the response within the sample period. […]
We have validated a secondary functional assay for mGluR5d based on Inositol Phosphate (IP3) turnover. IP3 accumulation is measured as an index of receptor mediated phospholipase C turnover. […]

T1 sequence (P41594 21-942 isoform P41594-3 limits assumed): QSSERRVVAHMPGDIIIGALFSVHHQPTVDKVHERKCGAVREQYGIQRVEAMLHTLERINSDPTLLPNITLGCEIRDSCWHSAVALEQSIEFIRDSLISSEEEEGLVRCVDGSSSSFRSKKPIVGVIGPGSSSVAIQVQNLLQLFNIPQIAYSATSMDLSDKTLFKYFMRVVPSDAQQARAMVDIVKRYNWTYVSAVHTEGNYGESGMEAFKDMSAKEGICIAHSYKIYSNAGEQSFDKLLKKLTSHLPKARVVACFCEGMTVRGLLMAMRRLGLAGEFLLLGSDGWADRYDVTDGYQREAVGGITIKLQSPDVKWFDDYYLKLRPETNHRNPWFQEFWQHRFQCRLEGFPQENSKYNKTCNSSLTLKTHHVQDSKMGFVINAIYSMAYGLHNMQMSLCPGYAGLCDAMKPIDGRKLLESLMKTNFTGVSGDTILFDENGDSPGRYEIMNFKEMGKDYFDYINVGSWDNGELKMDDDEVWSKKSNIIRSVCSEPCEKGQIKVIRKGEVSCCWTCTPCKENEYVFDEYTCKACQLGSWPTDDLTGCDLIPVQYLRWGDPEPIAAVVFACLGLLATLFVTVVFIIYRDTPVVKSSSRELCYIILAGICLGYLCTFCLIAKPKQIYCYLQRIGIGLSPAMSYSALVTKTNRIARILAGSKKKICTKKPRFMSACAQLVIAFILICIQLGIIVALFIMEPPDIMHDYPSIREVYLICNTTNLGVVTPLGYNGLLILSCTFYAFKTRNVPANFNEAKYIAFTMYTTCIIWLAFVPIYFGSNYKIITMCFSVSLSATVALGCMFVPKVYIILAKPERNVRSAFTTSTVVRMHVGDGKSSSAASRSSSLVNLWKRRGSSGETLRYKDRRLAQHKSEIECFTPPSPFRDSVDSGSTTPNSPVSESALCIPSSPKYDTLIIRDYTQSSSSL

IC50 [nM]	Structure (SMILES)
1080	CC(c1cn(-c2cccc(Cl)c2)nn1)N1CCN(c2ncccc2C#N)CC1 (centres unmarked) [Example 15.16, 2-(4-{1-[1-(3-chlorophenyl)-1H-1,2,3-triazol-4-yl]ethyl}piperazin-1-yl)nicotinonitrile]
159	CC(c1cn(-c2cccc(Cl)c2)nn1)N1CCN(c2ccc(C#N)cn2)CC1 (centres unmarked) [Example 15.17, 6-(4-{1-[1-(3-chlorophenyl)-1H-1,2,3-triazol-4-yl]ethyl}piperazin-1-yl)nicotinonitrile]

Reference: patent US20080312246A1, “Substituted Piperazines as Metabotropic Glutamate Receptor Antagonists” (AstraZeneca AB, priority 2005, published 2008)
